Values joined by “and” are separate entries in the source; they are usually repeats but may differ in a detail not shown here. Equal values may be shown once. Toxic doses and inconclusive results are not listed. Cut-off read from the data, not from the text of the source: active = T/C of 150% or more; inactive = T/C below 125%.
Test system: L1210 leukemia ip in BDF1 mice, survival T/C
Assay: NCI In Vivo Anticancer Drug Screen. Data for tumor model L1210 Leukemia (intraperitoneal) in B6D2F1 (BDF1) mice
Conditions: endpoint: mean survival time, higher = longer survival
Summary of the method: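 Survival endpoint. Drug-treated group vs vehicle group, expressed as T divided by C. Tumor passaged by transplantation.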

[1] = dose: 50.0 mg/kg/injection, schedule: Q01DX009 (ip), vehicle: saline
[2] = dose: 100.0 mg/kg/injection, schedule: Q01DX001 (ip), vehicle: saline
[3] = dose: 200.0 mg/kg/injection, schedule: Q01DX001 (ip), vehicle: saline
[4] = dose: 100.0 mg/kg/injection, schedule: Q01DX009 (ip), vehicle: saline
[5] = dose: 200.0 mg/kg/injection, schedule: Q01DX009 (ip), vehicle: saline
[6] = dose: 100.0 mg/kg/injection, schedule: Q04DX003 (ip), vehicle: saline with Tween-80
[7] = dose: 200.0 mg/kg/injection, schedule: Q04DX003 (ip), vehicle: saline with Tween-80
[8] = dose: 400.0 mg/kg/injection, schedule: Q04DX003 (ip), vehicle: saline with Tween-80

Measured: T/C

CCOC(=O)CN1CC(C)(C)N(CC(=O)OCC)CC1(C)C
inactive: dose: 100.0 mg/kg/injection, schedule: Q01DX001 (ip), vehicle: carboxymethylcellulose (CMC) 93 % of control | dose: 200.0 mg/kg/injection, schedule: Q01DX001 (ip), vehicle: carboxymethylcellulose (CMC) 93 % of control | dose: 400.0 mg/kg/injection, schedule: Q01DX001 (ip), vehicle: carboxymethylcellulose (CMC) 104 % of control

Cn1cnc([N+](=O)[O-])c1[Se]c1ncnc2c1ncn2C1OC(CO)C(O)C1O (stereo not drawn)
inactive: dose: 12.5 mg/kg/injection, schedule: Q01DX005 (ip), vehicle: saline 104 % of control | dose: 25.0 mg/kg/injection, schedule: Q01DX005 (ip), vehicle: saline 98 % of control

COc1ccc2c(c1C)CCC1(CO)CC(C)=CCC21 (stereo not drawn)
inactive: dose: 100.0 mg/kg/injection, schedule: Q01DX009 (ip), vehicle: saline sonified 93 % of control | dose: 200.0 mg/kg/injection, schedule: Q01DX009 (ip), vehicle: saline sonified 94 % of control | dose: 400.0 mg/kg/injection, schedule: Q01DX009 (ip), vehicle: saline sonified 91 % of control

CC12OC(c3ccccc3)(C3=C1C1CCC(C1)C3(C)C)c1ccccc12 (stereo not drawn)
inactive: [1] 89 % of control | [2] 103 % of control | [3] 100 % of control | dose: 400.0 mg/kg/injection, schedule: Q01DX001 (ip), vehicle: saline 112 % of control

CC(C)(C)N1CC1
inactive: dose: 25.0 mg/kg/injection, schedule: Q04DX002 (ip), vehicle: saline 103 % of control | [1] 101 % of control | dose: 50.0 mg/kg/injection, schedule: Q04DX002 (ip), vehicle: saline 93 % of control | [2] 106 % of control | [4] 111 % of control | dose: 100.0 mg/kg/injection, schedule: Q04DX002 (ip), vehicle: saline 93 % of control | [3] 106 % of control | [5] 103 % of control

Cc1ccc(C(=O)N/N=C/c2ccccc2Cl)cc1
inactive: dose: 100.0 mg/kg/injection, schedule: Q04DX002 (ip), vehicle: Klucel (hydroxypropylcellulose) (HPC) 101 % of control | dose: 200.0 mg/kg/injection, schedule: Q04DX002 (ip), vehicle: Klucel (hydroxypropylcellulose) (HPC) 93 % of control | dose: 400.0 mg/kg/injection, schedule: Q04DX002 (ip), vehicle: Klucel (hydroxypropylcellulose) (HPC) 104 % of control

C(=N\Nc1ccccc1)/c1cccc[n+]1Cc1ccccc1
inactive: dose: 75.0 mg/kg/injection, schedule: Q01DX001 (ip), vehicle: other 95 % of control | dose: 150.0 mg/kg/injection, schedule: Q01DX001 (ip), vehicle: other 96 % of control

CC(=O)OCc1ccc(O)c2ncccc12
inactive: dose: 75.0 mg/kg/injection, schedule: Q01DX001 (ip), vehicle: carboxymethylcellulose (CMC) 96 % of control | dose: 150.0 mg/kg/injection, schedule: Q01DX001 (ip), vehicle: carboxymethylcellulose (CMC) 100 % of control

C(=NC1CCCCC1)=NC1CCCCC1
inactive: dose: 2.5 mg/kg/injection, schedule: Q04DX003 (ip), vehicle: Klucel (hydroxypropylcellulose) (HPC) 105 % of control | dose: 5.0 mg/kg/injection, schedule: Q04DX003 (ip), vehicle: Klucel (hydroxypropylcellulose) (HPC) 105 % of control | dose: 10.0 mg/kg/injection, schedule: Q04DX003 (ip), vehicle: Klucel (hydroxypropylcellulose) (HPC) 106 % of control

CN1C(=O)CC(c2ccc(N3C(=O)C=CC3=O)cc2)C1=O (stereo not drawn)
inactive: dose: 25.0 mg/kg/injection, schedule: Q04DX002 (ip), vehicle: saline with Tween-80 102 % of control

O=C(O)C(O)c1ccc(Cl)cc1 (stereo not drawn)
inactive: [4] 96 % of control | [5] 91 % of control

CC(C)=CCC/C(C)=C/CNC(=O)/C=C/C(=O)O
inactive: dose: 25.0 mg/kg/injection, schedule: Q01DX009 (ip), vehicle: saline with Tween-80 98 % of control | dose: 50.0 mg/kg/injection, schedule: Q01DX009 (ip), vehicle: saline with Tween-80 93 % of control | dose: 50.0 mg/kg/injection, schedule: Q04DX003 (ip), vehicle: saline with Tween-80 91 % of control | dose: 100.0 mg/kg/injection, schedule: Q01DX009 (ip), vehicle: saline with Tween-80 100 % of control and 90 % of control | [6] 94 % of control and 98 % of control | dose: 200.0 mg/kg/injection, schedule: Q01DX009 (ip), vehicle: saline with Tween-80 105 % of control | [7] 86 % of control | dose: 400.0 mg/kg/injection, schedule: Q01DX009 (ip), vehicle: saline with Tween-80 94 % of control | [8] 97 % of control

Nc1ccc(NS(=O)(=O)CCl)cc1
inactive: dose: 100.0 mg/kg/injection, schedule: Q04DX002 (ip), vehicle: saline with Tween-80 111 % of control | dose: 200.0 mg/kg/injection, schedule: Q04DX002 (ip), vehicle: saline with Tween-80 116 % of control | dose: 400.0 mg/kg/injection, schedule: Q04DX002 (ip), vehicle: saline with Tween-80 96 % of control

CC12CCC(O)CC1=CCC1C2CCC2(C)C1CC1=CC(C#N)C(=O)NC12O (stereo not drawn)
inactive: dose: 100.0 mg/kg/injection, schedule: Q04DX003 (sc), vehicle: Klucel (hydroxypropylcellulose) (HPC) 100 % of control | dose: 200.0 mg/kg/injection, schedule: Q04DX003 (sc), vehicle: Klucel (hydroxypropylcellulose) (HPC) 103 % of control | dose: 400.0 mg/kg/injection, schedule: Q04DX003 (sc), vehicle: Klucel (hydroxypropylcellulose) (HPC) 99 % of control

Cc1nc(N)[nH]c(=O)c1CCCOc1ccccc1
inactive: dose: 50.0 mg/kg/injection, schedule: Q01DX Z (ip), vehicle: carboxymethylcellulose (CMC) 95 % of control | dose: 100.0 mg/kg/injection, schedule: Q01DX Z (ip), vehicle: carboxymethylcellulose (CMC) 93 % of control | dose: 200.0 mg/kg/injection, schedule: Q01DX Z (ip), vehicle: carboxymethylcellulose (CMC) 93 % of control | dose: 400.0 mg/kg/injection, schedule: Q01DX Z (ip), vehicle: carboxymethylcellulose (CMC) 93 % of control

O=C1OCCN1S(=O)(=O)c1ccc([N+](=O)[O-])cc1
inactive: dose: 3.12 mg/kg/injection, schedule: Q01DX009 (ip), vehicle: Klucel (hydroxypropylcellulose) (HPC) 94 % of control | dose: 6.25 mg/kg/injection, schedule: Q01DX009 (ip), vehicle: Klucel (hydroxypropylcellulose) (HPC) 93 % of control | dose: 12.5 mg/kg/injection, schedule: Q01DX009 (ip), vehicle: Klucel (hydroxypropylcellulose) (HPC) 94 % of control | dose: 100.0 mg/kg/injection, schedule: Q01DX001 (ip), vehicle: Klucel (hydroxypropylcellulose) (HPC) 86 % of control | dose: 100.0 mg/kg/injection, schedule: Q04DX003 (ip), vehicle: Klucel (hydroxypropylcellulose) (HPC) 97 % of control | dose: 200.0 mg/kg/injection, schedule: Q01DX001 (ip), vehicle: Klucel (hydroxypropylcellulose) (HPC) 91 % of control | dose: 200.0 mg/kg/injection, schedule: Q04DX003 (ip), vehicle: Klucel (hydroxypropylcellulose) (HPC) 92 % of control | dose: 400.0 mg/kg/injection, schedule: Q04DX003 (ip), vehicle: Klucel (hydroxypropylcellulose) (HPC) 88 % of control

COc1ccc2ccc(OC)c(C=O)c2c1
inactive: dose: 75.0 mg/kg/injection, schedule: Q01DX009 (ip), vehicle: Klucel (hydroxypropylcellulose) (HPC) 98 % of control | dose: 150.0 mg/kg/injection, schedule: Q01DX009 (ip), vehicle: Klucel (hydroxypropylcellulose) (HPC) 101 % of control | dose: 300.0 mg/kg/injection, schedule: Q01DX009 (ip), vehicle: Klucel (hydroxypropylcellulose) (HPC) 98 % of control

OC1(CBr)CCCCC1
inactive: [6] 102 % of control | [7] 98 % of control | [8] 95 % of control

COc1ccc2c3c1O[C@H]1C(O)C=C[C@H]4[C@@H](C2)N(C)CC[C@]314 (stereo partly drawn)
inactive: [2] 95 % of control | [3] 95 % of control

Source: PubChem BioAssay AID248 (DTP/NCI, 2004)
